From ChEMBL document CHEMBL4715725, “Structure-activity relationship studies on acremomannolipin A, the potent calcium signal modulator with a novel glycolipid structure 4: Role of acyl side chains on d-mannose” (Eur J Med Chem, 2016) come the findings set out here.

The structures appear in SMILES notation. Calls of active or inactive are those of the source. The calls are words filed in the database; no cut-off is given here.

For this test, the system named is Schizosaccharomyces pombe. The experiment in a line: Suppression of Cl-sensitive growth defect in Schizosaccharomyces pombe harboring h+leu1 ura4-D18 ppb1::ura4+ mutant assessed as colony formation at 100 uM measured after 3 days in presence of MgCl2 by disc filter paper. Format: functional, organism-based. As to conditions: time 3.0 day.
In the case of `CCCCCCCC(=O)OC[C@H]1O[C@@H](OC[C@@H](O)[C@@H](O)[C@H](O)[C@H](O)CO)[C@@H](OC(=O)CCCCCCC)[C@@H](OC(=O)CCCCCCC)[C@@H]1OC(=O)CCCCCCC`, the outcome was Active.

Regarding `CCCCCC(=O)OC[C@H]1O[C@@H](OC[C@@H](O)[C@@H](O)[C@H](O)[C@H](O)CO)[C@@H](OC(=O)CCC)[C@@H](OC(=O)CCCCC)[C@@H]1OC(=O)CCCCC`, the outcome was Active.

On to `CCCCCCC(=O)O[C@@H]1[C@H](OC[C@@H](O)[C@@H](O)[C@H](O)[C@H](O)CO)O[C@H](COC(=O)CCCCC)[C@@H](OC(=O)CCCCC)[C@@H]1OC(=O)CCCCC`, for which the outcome was Active.

In the case of `CCCCCCC(=O)OC[C@H]1O[C@@H](OC[C@@H](O)[C@@H](O)[C@H](O)[C@H](O)CO)[C@@H](OC(=O)CCCCCC)[C@@H](OC(=O)CCCCCC)[C@@H]1OC(=O)CCCCCC`, the outcome was Active.

`CCCCCC(=O)OC[C@H]1O[C@@H](OC[C@@H](O)[C@@H](O)[C@H](O)[C@H](O)CO)[C@@H](OC(=O)CC)[C@@H](OC(=O)CCCCC)[C@@H]1OC(=O)CCCCC`: the result was Active.

`CCCCCCCC(=O)O[C@@H]1[C@H](OC[C@@H](O)[C@@H](O)[C@H](O)[C@H](O)CO)O[C@H](COC(=O)CCCC)[C@@H](OC(=O)CCCC)[C@@H]1OC(=O)CCCC`: the result was Active.

In the case of `CCCCCCCCCCC(=O)O[C@@H]1[C@H](OC[C@@H](O)[C@@H](O)[C@H](O)[C@H](O)CO)O[C@H](COC(=O)CCCCC)[C@@H](OC(=O)CCCCC)[C@@H]1OC(=O)CCCCC`, the outcome was Active.

Turning to `CCC(=O)OC[C@H]1O[C@@H](OC[C@@H](O)[C@@H](O)[C@H](O)[C@H](O)CO)[C@@H](OC(=O)CC)[C@@H](OC(=O)CC)[C@@H]1OC(=O)CC`, the result was Active.

As for `CCCCCCCC(=O)O[C@@H]1[C@H](OC[C@@H](O)[C@@H](O)[C@H](O)[C@H](O)CO)O[C@H](COC(=O)CC)[C@@H](OC(=O)CC)[C@@H]1OC(=O)CC`, the result was Active.

As to `CCCCCCCCCCCCCC(=O)O[C@@H]1[C@H](OC[C@@H](O)[C@@H](O)[C@H](O)[C@H](O)CO)O[C@H](COC(=O)CCCCC)[C@@H](OC(=O)CCCCC)[C@@H]1OC(=O)CCCCC`, the result was Active.

Regarding `CCCCCCCCCCCC(=O)O[C@@H]1[C@H](OC[C@@H](O)[C@@H](O)[C@H](O)[C@H](O)CO)O[C@H](COC(=O)CCCCC)[C@@H](OC(=O)CCCCC)[C@@H]1OC(=O)CCCCC`, the result was Active.

`CCCCCCCC(=O)O[C@@H]1[C@H](OC[C@@H](O)[C@@H](O)[C@H](O)[C@H](O)CO)O[C@H](CO)[C@@H](O)[C@@H]1OC(=O)CCCCC`: the result was inactive.

Take `CCCCCCCC(=O)O[C@@H]1[C@H](OC[C@@H](O)[C@@H](O)[C@H](O)[C@H](O)CO)O[C@H](COC(=O)CCC)[C@@H](OC(=O)CCC)[C@@H]1OC(=O)CCC`: the outcome was Active.

As for `CCCCC(=O)OC[C@H]1O[C@@H](OC[C@@H](O)[C@@H](O)[C@H](O)[C@H](O)CO)[C@@H](OC(=O)CCCC)[C@@H](OC(=O)CCCC)[C@@H]1OC(=O)CCCC`, the result was Active.

With `CCCC(=O)OC[C@H]1O[C@@H](OC[C@@H](O)[C@@H](O)[C@H](O)[C@H](O)CO)[C@@H](OC(=O)CCC)[C@@H](OC(=O)CCC)[C@@H]1OC(=O)CCC`, the result was Active.

As for `CCCCCC(=O)OC[C@H]1O[C@@H](OC[C@@H](O)[C@@H](O)[C@H](O)[C@H](O)CO)[C@@H](OC(=O)CCCC)[C@@H](OC(=O)CCCCC)[C@@H]1OC(=O)CCCCC`, the result was Active.

`CCCCCC(=O)OC[C@H]1O[C@@H](OC[C@@H](O)[C@@H](O)[C@H](O)[C@H](O)CO)[C@@H](O)[C@@H](OC(=O)CCCCC)[C@@H]1OC(=O)CCCCC`: the result was inactive.

Regarding `CCCCCCCCC(=O)O[C@@H]1[C@H](OC[C@@H](O)[C@@H](O)[C@H](O)[C@H](O)CO)O[C@H](COC(=O)CCCCC)[C@@H](OC(=O)CCCCC)[C@@H]1OC(=O)CCCCC`, the outcome was Active.

Regarding `CCCCCCCCCC(=O)O[C@@H]1[C@H](OC[C@@H](O)[C@@H](O)[C@H](O)[C@H](O)CO)O[C@H](COC(=O)CCCCC)[C@@H](OC(=O)CCCCC)[C@@H]1OC(=O)CCCCC`, the result was Active.

`CCCCCCCCCCCCCCCC(=O)O[C@@H]1[C@H](OC[C@@H](O)[C@@H](O)[C@H](O)[C@H](O)CO)O[C@H](COC(=O)CCCCC)[C@@H](OC(=O)CCCCC)[C@@H]1OC(=O)CCCCC`: the result was Active.

Take `CCCCCCCC(=O)O[C@@H]1[C@H](OC[C@@H](O)[C@@H](O)[C@H](O)[C@H](O)CO)O[C@H](COC(=O)CCCCCC)[C@@H](OC(=O)CCCCCC)[C@@H]1OC(=O)CCCCCC`: the outcome was Active.

In the case of `CCCCCCCC(=O)O[C@@H]1[C@H](OC[C@@H](O)[C@@H](O)[C@H](O)[C@H](O)CO)O[C@H](COC(=O)CCCCC)[C@@H](OC(=O)CCCCC)[C@@H]1O`, the outcome was inactive.

In the case of `CCCCCC(=O)OC[C@H]1O[C@@H](OC[C@@H](O)[C@@H](O)[C@H](O)[C@H](O)CO)[C@@H](OC(=O)CCCCC)[C@@H](OC(=O)CCCCC)[C@@H]1OC(=O)CCCCC`, the outcome was Active.

On to `CCCCCCCC(=O)O[C@@H]1[C@H](OC[C@@H](O)[C@@H](O)[C@H](O)[C@H](O)CO)O[C@H](COC(=O)CCCCC)[C@@H](OC(=O)CCCCC)[C@@H]1OC(=O)CCCCC`, for which the result was Active.
